Assay results taken from patent US6525001B1, “Substituted pyrimidine and pyridine herbicides” (Mid-American Commercialization Corporation, priority 1997, dated 2003).

Assays:
Assay type in all cases: in vivo
Set-up in all cases: key: 0 is no effect; 10 is complete control
rice (Oryza sativa) = test: Test B flood test
Summary of the method: (§1)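 Flood test on plants grown to the 2-leaf stage; treated plants kept in greenhouse twelve to sixteen days, then visually rated against controls on a 0 (no effect) to 10 (complete control) scale.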

[1] = test system: duck salad (Heteranthera limosa); test: Test B flood test
Summary of the method: as §1

[2] = test system: bamyardgrass (Echinochloa crus-galli); test: Test B flood test
Summary of the method: as §1

[3] = test system: smallflower flatsedge (Cyperus difformis); test: Test B flood test
Summary of the method: as §1

[4] = test system: momingglory (Ipomoea hederacea); test: Test B pre-/postemergence
Summary of the method: (§2)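 Scored visually 0 (none) to 10 (complete control) against untreated plants after twelve to sixteen greenhouse days. Test chemicals, formulated in surfactant-containing non-phytotoxic solvent, applied to soil after planting and, separately, onto 1- to 4-leaf (2–18 cm) plants.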

[5] = test system: blackgrass (Alopecurus myosuroides); test: Test B pre-/postemergence
Summary of the method: as §2

[6] = test system: cocklebur (Xanthium strumarium); test: Test B pre-/postemergence
Summary of the method: as §2

rape (Brassica napus) = test: Test B pre-/postemergence
Summary of the method: as §2

corn (Zea mays) = test: Test B pre-/postemergence
Summary of the method: as §2

[7] = test system: giant foxtail (Setaria faberii); test: Test B pre-/postemergence
Summary of the method: as §2

[8] = test system: broadleaf signalgrass (Brachiaria decumbens); test: Test B pre-/postemergence
Summary of the method: as §2

[9] = test system: purple nutsedge (Cyperus rotundus); test: Test B pre-/postemergence
Summary of the method: as §2

wild oat (Avena fatua) = test: Test B pre-/postemergence
Summary of the method: as §2

soybean (Glycine max) = test: Test B pre-/postemergence
Summary of the method: as §2

[10] = test system: crabgrass (Digitaria sanguinalis); test: Test B pre-/postemergence
Summary of the method: as §2

[11] = test system: bedstraw (Galium aparine); test: Test B pre-/postemergence
Summary of the method: as §2

[12] = test system: pigweed (Amaranthus retroflexus); test: Test B pre-/postemergence
Summary of the method: as §2

[13] = test system: velvetleaf (Abutilon theophrasti); test: Test B pre-/postemergence
Summary of the method: as §2

[14] = test system: wheat (Triticum aestivum); test: Test B pre-/postemergence
Summary of the method: as §2

[15] = test system: sugar beet (Beta vulgaris); test: Test B pre-/postemergence
Summary of the method: as §2

[16] = Rate 62 g/ha, Postemergence (flood test)
[17] = Rate 125 g/ha, Postemergence section (flood test species)
[18] = Rate 250 g/ha, Postemergence (flood test species)
[19] = Preemergence, Rate 62 g/ha, scale of 0 to 10

## COc1cnc(-n2ccc(C(F)(F)F)n2)nc1C(=O)c1cccc(C(F)(F)F)c1 [Compound 60]
Rice (Oryza sativa); [16]
  Rice plant response rating: 0
Rice (Oryza sativa); [17]
  Rice plant response rating: 0
Rice (Oryza sativa); [18]
  Plant response rating, Rice: 1
[1]; [16]
  Ducksalad plant response rating: 1
[1]; [17]
  Ducksalad plant response rating: 2
[1]; [18]
  Plant response rating, Ducksalad: 2
[2]; [16]
  Barnyardgrass plant response rating: 1
[2]; [17]
  Barnyardgrass plant response rating: 1
[2]; [18]
  Plant response rating, Barnyardgrass: 2
[3]; [16]
  S. Flatsedge plant response rating: 4
[3]; [17]
  S. Flatsedge plant response rating: 5
[3]; [18]
  Plant response rating, S. Flatsedge: 6
[4]; [19]
  Plant response rating, Morningglory: 1
[4]; Rate 62 g/ha, Postemergence
  Morningglory plant response rating: 2
[4]; Rate 125 g/ha, Postemergence
  Morningglory plant response rating: 4
[4]; Rate 125 g/ha, Preemergence
  Plant response rating, Morningglory: 2
[4]; Rate 250 g/ha, Postemergence
  Plant response rating, Morningglory: 9
[4]; Rate 250 g/ha, Preemergence
  Plant response rating, Morningglory: 5
[5]; [19]
  Plant response rating, Blackgrass: 1
[5]; Rate 62 g/ha, Postemergence
  Blackgrass plant response rating: 1
[5]; Rate 125 g/ha, Postemergence
  Blackgrass plant response rating: 1
[5]; Rate 125 g/ha, Preemergence
  Plant response rating, Blackgrass: 1
[5]; Rate 250 g/ha, Postemergence
  Plant response rating, Blackgrass: 2
[5]; Rate 250 g/ha, Preemergence
  Plant response rating, Blackgrass: 2
[6]; [19]
  Plant response rating, Cocklebur: 0
[6]; Rate 62 g/ha, Postemergence
  Cocklebur plant response rating: 3
[6]; Rate 125 g/ha, Postemergence
  Cocklebur plant response rating: 3
[6]; Rate 125 g/ha, Preemergence
  Plant response rating, Cocklebur: 0
[6]; Rate 250 g/ha, Postemergence
  Plant response rating, Cocklebur: 4
[6]; Rate 250 g/ha, Preemergence
  Plant response rating, Cocklebur: 0
Rape (Brassica napus); [19]
  Plant response rating, Rape: 0
Rape (Brassica napus); Rate 62 g/ha, Postemergence
  Rape plant response rating: 3
Rape (Brassica napus); Rate 125 g/ha, Postemergence
  Rape plant response rating: 3
Rape (Brassica napus); Rate 125 g/ha, Preemergence
  Plant response rating, Rape: 0
Rape (Brassica napus); Rate 250 g/ha, Postemergence
  Plant response rating, Rape: 4
Rape (Brassica napus); Rate 250 g/ha, Preemergence
  Plant response rating, Rape: 1
Corn (Zea mays); [19]
  Plant response rating, Corn: 0
Corn (Zea mays); Rate 62 g/ha, Postemergence
  Corn plant response rating: 2
Corn (Zea mays); Rate 125 g/ha, Postemergence
  Corn plant response rating: 2
Corn (Zea mays); Rate 125 g/ha, Preemergence
  Plant response rating, Corn: 0
Corn (Zea mays); Rate 250 g/ha, Postemergence
  Plant response rating, Corn: 3
Corn (Zea mays); Rate 250 g/ha, Preemergence
  Plant response rating, Corn: 0
[7]; [19]
  Plant response rating, Giant foxtail: 2
[7]; Rate 62 g/ha, Postemergence
  Giant foxtail plant response rating: 2
[7]; Rate 125 g/ha, Postemergence
  Giant foxtail plant response rating: 2
[7]; Rate 125 g/ha, Preemergence
  Plant response rating, Giant foxtail: 2
[7]; Rate 250 g/ha, Postemergence
  Plant response rating, Giant foxtail: 2
[7]; Rate 250 g/ha, Preemergence
  Plant response rating, Giant foxtail: 5
[8]; Rate 62 g/ha, Postemergence
  B. signalgrass plant response rating: 2
[8]; Rate 62 g/ha, Preemergence
  B. signalgrass plant response rating: 2
[8]; Rate 125 g/ha, Postemergence
  B. signalgrass plant response rating: 2
[8]; Rate 125 g/ha, Preemergence
  Plant response rating, B. signalgrass: 3
[8]; Rate 250 g/ha, Postemergence
  Plant response rating, B. signalgrass: 3
[8]; Rate 250 g/ha, Preemergence
  Plant response rating, B. signalgrass: 3
[9]; [19]
  Plant response rating, Nutsedge: 0
[9]; Rate 62 g/ha, Postemergence
  Nutsedge plant response rating: 0
[9]; Rate 125 g/ha, Postemergence
  Nutsedge plant response rating: 0
[9]; Rate 125 g/ha, Preemergence
  Plant response rating, Nutsedge: 0
[9]; Rate 250 g/ha, Postemergence
  Plant response rating, Nutsedge: 0
Wild oat (Avena fatua); [19]
  Plant response rating, Wild oats: 0
Wild oat (Avena fatua); Rate 62 g/ha, Postemergence
  Wild oats plant response rating: 2
Wild oat (Avena fatua); Rate 125 g/ha, Postemergence
  Wild oats plant response rating: 2
Wild oat (Avena fatua); Rate 125 g/ha, Preemergence
  Plant response rating, Wild oats: 0
Wild oat (Avena fatua); Rate 250 g/ha, Postemergence
  Plant response rating, Wild oats: 2
Wild oat (Avena fatua); Rate 250 g/ha, Preemergence
  Plant response rating, Wild oats: 0
Soybean (Glycine max); [19]
  Plant response rating, Soybean: 0
Soybean (Glycine max); Rate 62 g/ha, Postemergence
  Soybean plant response rating: 2
Soybean (Glycine max); Rate 125 g/ha, Postemergence
  Soybean plant response rating: 2
Soybean (Glycine max); Rate 125 g/ha, Preemergence
  Plant response rating, Soybean: 0
Soybean (Glycine max); Rate 250 g/ha, Postemergence
  Plant response rating, Soybean: 2
Soybean (Glycine max); Rate 250 g/ha, Preemergence
  Plant response rating, Soybean: 0
[10]; [19]
  Plant response rating, Crabgrass: 0
[10]; Rate 62 g/ha, Postemergence
  Crabgrass plant response rating: 2
[10]; Rate 125 g/ha, Postemergence
  Crabgrass plant response rating: 3
[10]; Rate 125 g/ha, Preemergence
  Plant response rating, Crabgrass: 2
[10]; Rate 250 g/ha, Postemergence
  Plant response rating, Crabgrass: 4
[10]; Rate 250 g/ha, Preemergence
  Plant response rating, Crabgrass: 6
[11]; [19]
  Plant response rating, Bedstraw: 0
[11]; Rate 62 g/ha, Postemergence
  Bedstraw plant response rating: 2
[11]; Rate 125 g/ha, Postemergence
  Bedstraw plant response rating: 3
[11]; Rate 125 g/ha, Preemergence
  Plant response rating, Bedstraw: 0
[11]; Rate 250 g/ha, Postemergence
  Plant response rating, Bedstraw: 3
[11]; Rate 250 g/ha, Preemergence
  Plant response rating, Bedstraw: 1
[12]; [19]
  Plant response rating, Redroot pigweed: 6
[12]; Rate 62 g/ha, Postemergence
  Redroot pigweed plant response rating: 5
[12]; Rate 125 g/ha, Postemergence
  Redroot pigweed plant response rating: 7
[12]; Rate 125 g/ha, Preemergence
  Plant response rating, Redroot pigweed: 9
[12]; Rate 250 g/ha, Postemergence
  Plant response rating, Redroot pigweed: 7
[12]; Rate 250 g/ha, Preemergence
  Plant response rating, Redroot pigweed: 10
[13]; [19]
  Plant response rating, Velvetleaf: 1
[13]; Rate 62 g/ha, Postemergence
  Velvetleaf plant response rating: 2
[13]; Rate 125 g/ha, Postemergence
  Velvetleaf plant response rating: 2
[13]; Rate 125 g/ha, Preemergence
  Plant response rating, Velvetleaf: 1
[13]; Rate 250 g/ha, Postemergence
  Plant response rating, Velvetleaf: 2
[13]; Rate 250 g/ha, Preemergence
  Plant response rating, Velvetleaf: 1
[14]; [19]
  Plant response rating, Wheat: 0
[14]; Rate 62 g/ha, Postemergence
  Wheat plant response rating: 2
[14]; Rate 125 g/ha, Postemergence
  Wheat plant response rating: 3
[14]; Rate 125 g/ha, Preemergence
  Plant response rating, Wheat: 0
[14]; Rate 250 g/ha, Postemergence
  Plant response rating, Wheat: 3
[14]; Rate 250 g/ha, Preemergence
  Plant response rating, Wheat: 0
[15]; [19]
  Plant response rating, Sugarbeets: 6
[15]; Rate 62 g/ha, Postemergence
  Sugarbeets plant response rating: 8
[15]; Rate 125 g/ha, Postemergence
  Sugarbeets plant response rating: 8
[15]; Rate 125 g/ha, Preemergence
  Plant response rating, Sugarbeets: 8
[15]; Rate 250 g/ha, Postemergence
  Plant response rating, Sugarbeets: 9
[15]; Rate 250 g/ha, Preemergence
  Plant response rating, Sugarbeets: 9
